Consider eleven compounds from ChEMBL document CHEMBL1139567, “Synthesis and biological evaluation of sulfonamidooxazoles and beta-keto sulfones: selective inhibitors of 11beta-hydroxysteroid dehydrogenase type I” (Bioorg Med Chem Lett, 2005).

Assay [1] has as its target 11-beta-hydroxysteroid dehydrogenase 1 (Homo sapiens, UniProt P28845). As to the kind of experiment: Inhibitory concentration against human 11-beta-hydroxysteroid dehydrogenase 1.
Assay [2] concerns the target T1, 11-beta-hydroxysteroid dehydrogenase type 2 (Homo sapiens, UniProt P80365).
T1 sequence (P80365 whole entry): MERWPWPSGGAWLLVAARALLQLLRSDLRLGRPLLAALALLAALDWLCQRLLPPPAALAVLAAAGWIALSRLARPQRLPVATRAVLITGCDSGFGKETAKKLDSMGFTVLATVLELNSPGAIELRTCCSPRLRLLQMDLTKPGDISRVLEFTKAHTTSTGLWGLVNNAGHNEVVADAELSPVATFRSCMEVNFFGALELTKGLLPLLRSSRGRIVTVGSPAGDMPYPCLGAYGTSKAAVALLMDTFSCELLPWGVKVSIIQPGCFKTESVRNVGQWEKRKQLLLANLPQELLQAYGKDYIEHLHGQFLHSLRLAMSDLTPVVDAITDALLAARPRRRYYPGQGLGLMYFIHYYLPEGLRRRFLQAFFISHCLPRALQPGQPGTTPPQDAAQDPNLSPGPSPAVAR
As to the kind of experiment: Inhibitory concentration against human 11-beta-hydroxysteroid dehydrogenase 2.

Chain of 11-beta-hydroxysteroid dehydrogenase 1 (P28845 whole entry): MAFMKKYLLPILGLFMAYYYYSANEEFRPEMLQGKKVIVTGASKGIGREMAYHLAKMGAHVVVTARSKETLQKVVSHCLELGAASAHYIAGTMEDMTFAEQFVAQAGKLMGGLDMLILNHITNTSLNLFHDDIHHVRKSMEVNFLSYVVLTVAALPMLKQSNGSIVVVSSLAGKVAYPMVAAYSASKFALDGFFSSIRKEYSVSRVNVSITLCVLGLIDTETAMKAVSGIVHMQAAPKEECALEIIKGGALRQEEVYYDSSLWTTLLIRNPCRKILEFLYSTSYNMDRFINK

As to `O=S(=O)(Nc1nc(-c2ccc(-c3ccccc3)cc2)co1)c1ccccc1`, the IC50 in assay [1] is 2.3 µM; in assay [2], more than 200 µM.

With `Cc1c(Cl)cccc1S(=O)(=O)Nc1nc(-c2ccc(C#N)cc2)co1`, the IC50 was 48 µM in assay [1] and more than 200 µM in assay [2].

As for `O=C(CS(=O)(=O)c1ccccc1)c1ccc(C(F)(F)F)cc1`, the concentration for half-maximal inhibition (IC50) in assay [1] is 0.19 µM; in assay [2], more than 200 µM.

Compound `Cc1coc(NS(=O)(=O)c2cccc(Cl)c2CC(=O)O)n1` came in with an IC50 in assay [1] of more than 100 µM.

On to `O=S(=O)(Nc1nc(-c2ccc(C(F)(F)F)cc2)co1)c1ccccc1`, for which the IC50 in assay [1] is 9 µM; in assay [2], more than 200 µM.

Regarding `Cc1c(Cl)cccc1S(=O)(=O)Nc1nc(-c2ccccc2)co1`, the IC50 in assay [1] is 17.3 µM; in assay [2] it was more than 200 µM.

As to `O=S(=O)(Nc1nc(-c2ccccc2)co1)c1ccccc1`, the figures for the IC50 in assay [1] and in assay [2] were 23 µM and more than 200 µM, respectively.

Regarding `CC(=O)N(C)c1ccc(S(=O)(=O)Nc2nc(C)c(C)o2)cc1`, the figures for the IC50 in assay [1] and in assay [2] were 100 µM and more than 200 µM, respectively.

On to `Cc1coc(NS(=O)(=O)c2cccc(Cl)c2C)n1`, for which the IC50 in assay [1] was found to be 58.7 µM.

Regarding `COC(=O)Cc1c(Cl)cccc1S(=O)(=O)Nc1nc(C)co1`, the IC50 in assay [1] was more than 100 µM.

With `CCN(CC)C(=O)Cc1csc(NS(=O)(=O)c2cccc(Cl)c2C)n1`, the values for the IC50 in assay [1] and in assay [2] were 1.5 µM and more than 200 µM, respectively.
